Measurements published in patent US20100284984A1, “ADENOSINE AND ITS MIMETICS. MODULATORS, TRANSPORT INHIBITORS, AND RECEPTOR AGONISTS AS A THERAPEUTIC TOOL TO REPLACE OR IMPROVE THE EFFICACY OF DEEP BRAIN STIMULATION” (University of Rochester, priority 2007, published 2010).
“Also recorded” adds a separate entry of the source.

Legend:
[1] = molecular target: T1, Ecto-5′-nucleotidase CD73 (Rattus norvegicus, UniProt P21588); details: Sato et al., rat hearts; cited from earlier work
T1 sequence (P21588 29-551): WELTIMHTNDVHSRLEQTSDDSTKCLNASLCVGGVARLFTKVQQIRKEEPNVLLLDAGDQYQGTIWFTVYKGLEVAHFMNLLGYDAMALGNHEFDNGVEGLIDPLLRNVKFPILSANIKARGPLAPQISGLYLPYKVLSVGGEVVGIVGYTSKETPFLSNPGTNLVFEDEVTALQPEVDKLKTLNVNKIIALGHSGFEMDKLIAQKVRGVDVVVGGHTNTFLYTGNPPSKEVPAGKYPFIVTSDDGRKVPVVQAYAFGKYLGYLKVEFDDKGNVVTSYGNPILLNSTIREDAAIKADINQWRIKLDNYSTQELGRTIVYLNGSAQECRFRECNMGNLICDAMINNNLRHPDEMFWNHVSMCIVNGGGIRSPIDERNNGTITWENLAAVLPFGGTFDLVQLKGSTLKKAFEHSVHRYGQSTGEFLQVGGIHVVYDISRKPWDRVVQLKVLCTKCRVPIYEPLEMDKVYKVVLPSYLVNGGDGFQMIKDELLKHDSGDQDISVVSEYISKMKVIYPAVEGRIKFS

adenosine deaminase = molecular target: T2, adenosine deaminase (Homo sapiens, UniProt P00813); details: at 27° C.; cited from earlier work
T2 sequence (P00813 1-363): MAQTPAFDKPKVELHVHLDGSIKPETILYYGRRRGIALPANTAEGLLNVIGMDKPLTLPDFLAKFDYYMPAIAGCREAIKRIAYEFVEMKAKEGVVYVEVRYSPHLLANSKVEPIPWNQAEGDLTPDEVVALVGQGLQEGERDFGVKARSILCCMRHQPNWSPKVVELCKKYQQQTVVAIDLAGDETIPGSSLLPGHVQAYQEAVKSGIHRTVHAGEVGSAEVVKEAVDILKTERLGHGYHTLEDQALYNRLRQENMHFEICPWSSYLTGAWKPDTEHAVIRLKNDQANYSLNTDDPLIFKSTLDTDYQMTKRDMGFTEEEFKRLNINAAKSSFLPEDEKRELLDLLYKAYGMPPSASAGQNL

thalamic neurons [2] = assay: Drug effect on evoked EPSPs (eEPSP) in thalamic slices, current clamp; assay type: cell-based, mouse; details: DPCPX 100 nM
Experimental: Thalamic slices (300 μm) from 14-18 day old mouse pups (FVB/NJ mice; Jackson Laboratory) were cut on a Vibratome (TPI) in an ice-cold cutting solution containing (in mM): 2.5 KCl, 1.25 NaH2PO4, 10 MgSO4, 5 CaCl2, 10 glucose, 26 NaHCO3, 230 sucrose and gassed with 5% CO2 and 95% O2. Slices were incubated for a minimum of 1 hr in a slice solution containing (in mM): 126 NaCl, 2.5 KCl, 1.25 NaH2PO4, 2 MgCl2, 2 CaCl2, 10 glucose, and 26 NaHCO3, pH 7.4, and gassed with 5% CO2 and 95% O2 at room temperature. The slices were transferred to a recording chamber (1.5 ml) perfused with aCSF at room temperature or 32° C. Whole-cell current clamp recordings were obtained using a 700B Multiclamp amplifier (Axon Instruments) (Jiang et al., “A Kainate Receptor Increases The Efficacy of Gabaergic Synapses,” Neuron 30:503-13 (2001); Tian et al., “An Astrocytic Basis of Epilepsy,” Nat Med 11:973-81 (2005), which are hereby incorporated by reference in their entirety). Concentric bipolar stimulating electrodes (FHC) were placed ˜100-400 μm ventromedial to the patched VL thalamic neuron. Stimulation was delivered through a constant isolated current source (ISO-Flex stimulus isolator with a Master-8-vp stimulator; AMPI) and consisted of monophasic 60 μs square pulses of varying amplitude (15, 25, 50 μA) and frequency (25, 75, 125, 200 Hz). Based upon maximum current amplitude and the surface area of the electrode, it is estimated that the maximum charge density was in the range of ˜1-10 μC/cm^2. The artifacts of the HFS signal were blanked and staggered to allow continuous observation of the 2.5 Hz signal (Anderson et al., “Selective Attenuation of Afferent Synaptic Transmission as a Mechanism of Thalamic Deep Brain Stimulation-Induced Tremor Arrest,” J Neurosci 26:841-50 (2006), which is hereby incorporated by reference in its entirety). Adenosine measurements were detected using needle shaped electrode (Pt/Ir wire) biosensors (Sarissa Biomedical). Calibration was carried out at the beginning and end of each slice experiment in the bath above the slice. Measurements were obtained ˜100 μm from the stimulation electrode in the thalamic slice. […].
To further analyze the role of adenosine in HFS, the effect of perfusion with an aCSF containing 1-100 μM adenosine in thalamic slices was studied. […]. […] The AMPA receptor antagonist, CNQX could not be tested due to its direct effect on EPSCs (Wang et al., “Astrocytic Ca(2+) Signaling Evoked by Sensory Stimulation in Vivo,” Nat Neurosci 9:816-23 (2006), which is hereby incorporated by reference in its entirety) (FIG. 3G). […]. […]

thalamic neurons [3] = assay: HFS-induced depression of eEPSPs in thalamic slices, pharmacology; assay type: cell-based, mouse
thalamic neurons [4] = assay: HFS-induced membrane depolarization of thalamic neurons; assay type: cell-based, mouse; details: thalamic slices during HFS
harmaline-induced tremor = assay: DBS therapeutic window in harmaline-induced tremor; assay type: in vivo; details: APV and CNQX 10 mg/kg each i.p.; DPCPX 4 mg/Kg i.p.
Experimental: Harmaline was administed i.p. 20 min prior to DBS (20-30 mg/kg) (Wilms et al., “Animal Models of Tremor,” Mov Disord 14:557-71 (1999); Martin et al., “Harmaline-Induced Tremor as a Potential Preclinical Screening Method for Essential Tremor Medications,” Mov Disord 20:298-305 (2005), which are hereby incorporated by reference in their entirety). […] For electrode and microdialysis implantation, mice were anaesthetized with a mixture of Ketamine (60 mg/kg) and Xylazine (10 mg/kg) and placed into a stereotactic frame. The skull was exposed and concentric bipolar microelectrodes (SNE-100, KOPF) or microdialysis probes (Bioanalytical Systems, Inc.) were implanted into the ventrolateral thalamic nucleus at the following coordinates: AP: −1.4 mm; ML: ±0.9 mm; DV: −3.7 mm. The electrodes or microdialysis probes were attached to the skull with dental cement. […] Tremor was recorded by either EMG electrodes placed in the occipital muscles or by the Convuls-1 pressure transducer (Columbus Instruments) in awake freely moving animals. […]
. […] The minimal efficient current amplitude of DBS was determined by methodically changing the stimulation parameters (FIG. 4C). […]

Ecto-ATPase [5] = details: Chen et al.; cited from earlier work
Ecto-ATPase [6] = details: Yegutkin et al., rat liver plasma membranes; cited from earlier work
Ecto-ATPase [7] = details: range over Crack et al.; Dowd et al.; Stout et al.; cited from earlier work

SMILES: COc1ccc(Cl)cc1C(=O)NCCc1ccc(S(=O)(=O)NC(=O)NC2CCCCC2)cc1 [giberclamide]
- IC50 [1]: 10.5 µM

SMILES: CC(=O)Nc1ccc(O)cc1 [acetaminophen]
- Ki (adenosine deaminase): 126 µM

SMILES: CCCn1c(=O)c2[nH]c(C3CCCC3)nc2n(CCC)c1=O [DPCPX]
- effect on adenosine-induced reduction of eEPSPs (thalamic neurons [2]): blocked the effect of adenosine; also recorded: reversibly attenuated the reduction
- time for EPSPs to recover to pre-stimulation values after HFS (thalamic neurons [3]; 300 nM, directly stimulated pathways): 12.4 ± 6.1 s
- effect on HFS-induced depression of eEPSPs, heterosynaptic pathways (thalamic neurons [3]; HFS 125 Hz, 250 μA, 10 sec, 32° C., separate electrodes): attenuated the depression of eEPSPs; also recorded: potently attenuated the HFS-induced suppression of eEPSPs
- effect on HFS-induced depression of eEPSPs, homosynaptic (directly stimulated) pathways (thalamic neurons [3]; same electrode for HFS and eEPSPs): reduced depression of eEPSPs after, but not during, HFS; also recorded: attenuated this reduction following, but not during HFS
- effect on HFS-induced depolarization (thalamic neurons [4]): no effect
- effect on the ability of DBS to reduce harmaline-induced tremor (harmaline-induced tremor): involuntary movements rather than tremor reduction
- threshold for DBS-induced involuntary movements (harmaline-induced tremor): developed involuntary movements at stimulation intensities below the therapeutic range

SMILES: Cc1ccc(C(=O)Nc2ccc(S(=O)(=O)O)c3cc(S(=O)(=O)O)cc(S(=O)(=O)O)c23)cc1NC(=O)c1cccc(NC(=O)Nc2cccc(C(=O)Nc3cc(C(=O)Nc4ccc(S(=O)(=O)O)c5cc(S(=O)(=O)O)cc(S(=O)(=O)O)c45)ccc3C)c2)c1 [suramin]
- Ki (Ecto-ATPase [5]): 44 µM
- pIC 50 (Ecto-ATPase [6]): 4.57
- IC50 (Ecto-ATPase [7]): 46 to 114 µM
